Test system: rabbit VX2 liver cancer model
Test: 18F-FCH PET/CT imaging of residual liver after first-stage ALPPS
Format: in vivo
Settings: ALPPS group
Description: using incision and fragmentation method for liver cancer tissues; first inoculating a VX2 tumor strain into the muscle outside the rabbit hind leg after passage, wherein the tumor grows to a diameter of 2.0-3.0 cm after 3 weeks; removing the tumor in the muscle of the rabbit hind, eliminating the necrotic tissue, selecting fish-like tissue at the edge of the tumor, and using ophthalmic scissors to cut the tumor tissue into tissue blocks of 1 mm3, and washing repeatedly with saline and putting in a sterile Petri dish for use; putting an experimental rabbit into general anesthesia (method of anesthesia: intramuscular injection of Shutai 1 ml) and fixing it on an animal operating table in supine position; performing skin preparation, disinfection, and spreading sterile surgical scarves on a surgical region of a rabbit abdomen; injecting lidocaine into linea alba 1 cm below xiphoid process for local anesthesia, and making a midline incision of 4 to 5 cm in an upper abdomen and cutting abdominal wall layer by layer to expose a left lateral lobe of a liver; cutting a thicker liver lobe to form a hole passage of about 3 mm×3 mm, and implanting 3-5 tumors into it, then filling liver incision with gelatin sponge particles and pressing to stop bleeding, followed by suturing the incision and closing the abdomen.
two weeks after implanting the rabbit liver with the VX2 tumor strain, performing the first stage of ALPPS (i.e. associating liverpartition and portal vein ligation for staged hepatectomy) on tumor-bearing rabbits;
dividing the tumor-bearing rabbits randomly into an ALPPS group (the left branch of the portal vein of the liver is ligated, and the liver parenchyma is dissected along the ischemic line between the left middle lobe of the liver and the right lobe of the liver) and a Sham group (i.e., a sham operation group, no portal vein ligation and liver dissection); fasting rabbits in the ALPPS group for 12 hours before surgery, and fixing on the table in the supine position after general anesthesia, and performing skin preparation in the surgical region; injecting lidocaine into the left under the xiphoid process, opening the abdomen after anesthesia around the incision with an incision length of about 5-7 cm, exposing and separating the left branch of the portal vein and ligating with 4-0 surgical sutures, then after an ischemic line between the left and right liver is formed, using the surgical scissors to cut off the liver parenchyma along the ischemic line; filling the partition with gel sponge particles for hemostasis, after no obvious bleeding, closing the abdominal wall incision layer by layer, closing the abdominal cavity, and disinfecting the incision with iodophor. […]

Compound: C[N+](C)(C[18F])CCO [18 F-FCH, [18 F] fluoromethylcholine]
- 18 F-FCH intake in the residual liver (after 14 days): decreases slightly
- 18 F-FCH uptake in the residual liver tissue (first 3 days after surgery): increases rapidly
- 18 F-FCH uptake in the residual liver tissue (from the 1st postoperative day, PET/CT 1 h after 37 MBq/kg i.v.): significant high uptake
- time at which 18 F-FCH uptake reaches a peak (residual liver, days after surgery): around 7 days

— patent US11123033B2, “Molecular imaging method for evaluating liver regeneration capacity after ALPPS operation” (Harbin Medical University, priority 2019, dated 2021)
